The numbers were not newly measured in patent publication US20060069238A1, “Synthetic glyco-lipo-peptides as vaccines” (Biomira, Inc., priority 2002, published 2006), which cites them from elsewhere.

The structures appear in SMILES notation.

For the series the following is noted: n-octanol:water, experimental database of LogKow; cited from earlier work.

As to `Cc1c[nH]c2ccccc12` [3-methyl indole], the “LogP Exp” value was 2.60.
